18 compounds from patent US9090605B2, “Substituted 5-,6- and 7-membered heterocycles, medicaments containing such compounds, and their use” (Vitae Pharmaceuticals, Inc., priority 2010, dated 2015) can be followed below.

The assay concerns the target 11β-HSD1 (Homo sapiens, UniProt P28845). As to the kind of experiment: In vitro inhibition of 11β-HSD1, HTRF detection of cortisol generated by human liver microsomes (biological test example 1). As to conditions: 1 hour at 37° C., cortisone 80 nM, NADPH 200 μM, read-out: IC50, inhibitory activity on 11β-HSD 1. Format: biochemical. Also on record: detecting cortisol generated from cortisterone by human liver microsomes; from tissue; host or cells: human liver microsomes. The protocol: Briefly, compounds were incubated for 1 hour at 37° C. in Tris buffer (20 mM tris, 5 mM EDTA, pH 6.0) containing NADPH (200 μM) and cortisone (80 nM). Cortisol generated in the reaction was then detected with a competitive immunoassay, involving two HTRF conjugates: cortisol linked to XL665 and anti-cortisol antibody labeled with Europium cryptate. The incubation period for detection reaction was typically 2 hours. The amount of cortisol was determined by reading the time-resolved fluorescence of the wells (Ex 320/75 nm; Em 615/8.5 nm and 665/7.5 nm). The ratio of the two emission signals was then calculated (Em665*10000/Em615). […] Each assay also contained a calibration curve with cortisol to transform the fluorescent data into cortisol concentrations. Percent inhibition (% CTL) of each compound was determined relative to the carbenoxolone signal and IC50 curves were generated.

Sequence of 11β-HSD1 (P28845 whole entry): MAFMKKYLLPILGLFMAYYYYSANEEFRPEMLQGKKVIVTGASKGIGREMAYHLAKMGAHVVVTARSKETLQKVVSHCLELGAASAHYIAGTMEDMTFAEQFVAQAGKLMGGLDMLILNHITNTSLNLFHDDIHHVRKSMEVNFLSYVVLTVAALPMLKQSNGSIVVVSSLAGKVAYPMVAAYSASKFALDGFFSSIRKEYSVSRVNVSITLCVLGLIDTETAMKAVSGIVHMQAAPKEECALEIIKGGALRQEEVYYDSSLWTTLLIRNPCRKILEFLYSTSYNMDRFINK

In the case of `C[C@@H](c1ccc(-c2ccc(C3(C(N)=O)CC3)cn2)cc1)N1CC[C@](CC(C)(C)O)(c2ccccc2)OC1=O` [Example 19, 1-[6-(4-{(S)-1-[(S)-6-(2-Hydroxy-2-methyl-propyl)-2-oxo-6-phenyl-[1,3]oxazinan-3-yl]-ethyl}-phenyl)-pyridin-3-yl]-cyclopropanecarboxylic acid amide], the IC50 came to 0.035 µM.

In the case of `C[C@@H](c1ccc(-c2ccnc(C3(S(C)(=O)=O)CC3)c2)cc1)N1CC[C@](CC(C)(C)O)(c2ccccc2)OC1=O` [Example 21, (S)-6-(2-Hydroxy-2-methyl-propyl)-3-((S)-1-{4-[2-(1-methanesulfonyl-cyclopropyl)-pyridin-4-yl]-phenyl}-ethyl)-6-phenyl-[1,3]oxazinan-2-one], the IC50 was 0.052 µM.

Turning to `CNC(=O)C1(c2ccc(-c3ccc([C@H](C)N4CC[C@](CC(C)(C)O)(c5ccccc5)OC4=O)cc3)cn2)CC1` [Example 5, 1-[5-(4-{(S)-1-[(S)-6-(2-Hydroxy-2-methyl-propyl)-2-oxo-6-phenyl-[1,3]oxazinan-3-yl]-ethyl}-phenyl)-pyridin-2-yl]-cyclopropanecarboxylic acid methylamide], the IC50 is 0.031 µM.

For the compound `CNC(=O)C1(c2ccc(-c3ccc([C@H](C)N4CC[C@](CC(C)(C)O)(c5ccccc5)OC4=O)cc3)nn2)CC1` [Example 10, 1-[6-(4-{(S)-1-[(S)-6-(2-Hydroxy-2-methyl-propyl)-2-oxo-6-phenyl-[1,3]oxazinan-3-yl]-ethyl}-phenyl)-pyridazin-3-yl]-cyclopropanecarboxylic acid methylamide], the IC50 came to 0.061 µM.

For `C[C@@H](c1ccc(-c2ccc(C3(O)COC3)cc2)cc1)N1CC[C@](CC(C)(C)O)(c2ccccc2)OC1=O` [Example 1, (S)-6-(2-Hydroxy-2-methyl-propyl)-3-{(S)-1-[4′-(3-hydroxy-oxetan-3-yl)-biphenyl-4-yl]-ethyl}-6-phenyl-[1,3]oxazinan-2-one], the IC50 amounted to 0.056 µM.

On to `C[C@@H](c1ccc(-c2ccc(C3(C#N)CC3)cn2)cc1)N1CC[C@](CC(C)(C)O)(c2ccccc2)OC1=O` [Example 17, 1-[6-(4-{(S)-1-[(S)-6-(2-Hydroxy-2-methyl-propyl)-2-oxo-6-phenyl-[1,3]oxazinan-3-yl]-ethyl}-phenyl)-pyridin-3-yl]-cyclopropanecarbonitrile], for which the IC50 is 0.081 µM.

`C[C@@H](c1ccc(-c2ccc(N3CCC[C@H]3C(N)=O)nc2)cc1)N1CC[C@](CC(C)(C)O)(c2ccccc2)OC1=O` [Example 54, (S)-1-[5-(4-{(S)-1-[(S)-6-(2-Hydroxy-2-methyl-propyl)-2-oxo-6-phenyl-[1,3]oxazinan-3-yl]-ethyl}-phenyl)-pyridin-2-yl]-pyrrolidine-2-carboxylic acid amide]: the IC50 turned out to be 0.03 µM.

On to `CNC(=O)C1(c2cccc(-c3ccc([C@H](C)N4CC[C@](CC(C)(C)O)(c5ccccc5)OC4=O)cc3)n2)CC1` [Example 23, 1-[6-(4-{(S)-1-[(S)-6-(2-Hydroxy-2-methyl-propyl)-2-oxo-6-phenyl-[1,3]oxazinan-3-yl]-ethyl}-phenyl)-pyridin-2-yl]-cyclopropanecarboxylic acid methylamide], for which the IC50 amounted to 0.115 µM.

As for `C[C@@H](c1ccc(-c2cccc(C3(C(N)=O)CC3)n2)cc1)N1CC[C@](CC(C)(C)O)(c2ccccc2)OC1=O` [Example 22, 1-[6-(4-{(S)-1-[(S)-6-(2-Hydroxy-2-methyl-propyl)-2-oxo-6-phenyl-[1,3]oxazinan-3-yl]-ethyl}-phenyl)-pyridin-2-yl]-cyclopropanecarboxylic acid amide], the IC50 was found to be 0.086 µM.

`C[C@@H](c1ccc(-c2ccc(C3(C(N)=O)CCCC3)nc2)cc1)N1CC[C@](CC(C)(C)O)(c2ccccc2)OC1=O` [Example 42, 1-[5-(4-{(S)-1-[(S)-6-(2-Hydroxy-2-methyl-propyl)-2-oxo-6-phenyl-[1,3]oxazinan-3-yl]-ethyl}-phenyl)-pyridin-2-yl]-cyclopentanecarboxylic acid amide]: the IC50 is 0.056 µM.

As to `C[C@@H](c1ccc(-c2cccc(C3(C(=O)N(C)C)CC3)n2)cc1)N1CC[C@](CC(C)(C)O)(c2ccccc2)OC1=O` [Example 24, 1-[6-(4-{(S)-1-[(S)-6-(2-Hydroxy-2-methyl-propyl)-2-oxo-6-phenyl-[1,3]oxazinan-3-yl]-ethyl}-phenyl)-pyridin-2-yl]-cyclopropanecarboxylic acid dimethylamide], the IC50 worked out at 0.053 µM.

As to `C[C@@H](c1ccc(-c2ccnc(C3(C(=O)N(C)C)CC3)c2)cc1)N1CC[C@](CC(C)(C)O)(c2ccccc2)OC1=O` [Example 48, 1-[4-(4-{(S)-1-[(S)-6-(2-Hydroxy-2-methyl-propyl)-2-oxo-6-phenyl-[1,3]oxazinan-3-yl]-ethyl}-phenyl)-pyridin-2-yl]-cyclopropanecarboxylic acid dimethylamide], the IC50 stood at 0.047 µM.

Turning to `C[C@@H](c1ccc(-c2ccc(C3(C(N)=O)CCCCC3)nc2)cc1)N1CC[C@](CC(C)(C)O)(c2ccccc2)OC1=O` [Example 43, 1-[5-(4-{(S)-1-[(S)-6-(2-Hydroxy-2-methyl-propyl)-2-oxo-6-phenyl-[1,3]oxazinan-3-yl]-ethyl}-phenyl)-pyridin-2-yl]-cyclohexanecarboxylic acid amide], the IC50 is 0.067 µM.

Regarding `C[C@@H](c1ccc(-c2ccc(C3(C(N)=O)CC3)nn2)cc1)N1CC[C@](CC(C)(C)O)(c2ccccc2)OC1=O` [Example 9, 1-[6-(4-{(S)-1-[(S)-6-(2-Hydroxy-2-methyl-propyl)-2-oxo-6-phenyl-[1,3]oxazinan-3-yl]-ethyl}-phenyl)-pyridazin-3-yl]-cyclopropanecarboxylic acid amide], the IC50 turned out to be 0.068 µM.

On to `C[C@@H](c1ccc(-c2ccnc(C3(C(N)=O)CC3)c2)cc1)N1CC[C@](CC(C)(C)O)(c2ccccc2)OC1=O` [Example 46, 1-[4-(4-{(S)-1-[(S)-6-(2-Hydroxy-2-methyl-propyl)-2-oxo-6-phenyl-[1,3]oxazinan-3-yl]-ethyl}-phenyl)-pyridin-2-yl]-cyclopropanecarboxylic acid amide], for which the concentration for half-maximal inhibition (IC50) stood at 0.056 µM.

Take `CCOC(=O)C1(c2ccc(-c3ccc([C@H](C)N4CC[C@](CC(C)(C)O)(c5ccccc5)OC4=O)cc3)nn2)CC1` [Example 7, 1-[6-(4-{(S)-1-[(S)-6-(2-Hydroxy-2-methyl-propyl)-2-oxo-6-phenyl-[1,3]oxazinan-3-yl]-ethyl}-phenyl)-pyridazin-3-yl]-cyclopropanecarboxylic acid ethyl ester]: the concentration for half-maximal inhibition (IC50) is 0.041 µM.

Consider `C[C@@H](c1ccc(-c2ccc(C3(C#N)CC3)nn2)cc1)N1CC[C@](CC(C)(C)O)(c2ccccc2)OC1=O` [Example 4, 1-[6-(4-{(S)-1-[(S)-6-(2-Hydroxy-2-methyl-propyl)-2-oxo-6-phenyl-[1,3]oxazinan-3-yl]-ethyl}-phenyl)-pyridazin-3-yl]-cyclopropanecarbonitrile], for which the IC50 is 0.053 µM.

For `C[C@@H](c1ccc(-c2ccc(C3(C(N)=O)CC3)nc2)cc1)N1CC[C@](CC(C)(C)O)(c2ccccc2)OC1=O` [Example 3, 1-[5-(4-{(S)-1-[(S)-6-(2-Hydroxy-2-methyl-propyl)-2-oxo-6-phenyl-[1,3]oxazinan-3-yl]-ethyl}-phenyl)-pyridin-2-yl]-cyclopropanecarboxylic acid amide], the IC50 came to 0.039 µM.

Usually IC50 stands for the concentration that gives 50% inhibition.
